One data set addresses T1, HIV-1 protease (Human immunodeficiency virus type 1 group M subtype B, UniProt P04585).
T1 construct: Recombinant HIV-1 protease (>96% purity); purchased Bachem Bioscience Inc. (King of Prussia, PA)
Put plainly: biochemical. The settings on record: read-out: Inhib of HIV-Protease IC50. From the text: The testing of specific 5,6-dihydropyrones as inhibitors of the HIV aspartyl protease, based on the study of the hydrolysis of an undecapeptide enzyme substrate, and the testing of the 5,6-dihydropyrones as inhibitors of viral growth and infectivity, based on the study of infection of H9 cell lines by the HIV-1iiib strain, are also disclosed. […] The methods employed follow the procedures of Tummino, et al. (Archives of Biochemistry and Biophysics 1995, 316, 523).
(§1) The compounds of the present invention were evaluated for their in vitro inhibition of HIV-1 protease and for their antiviral efficacy in HIV infected lymphocytes.
Recombinant HIV-1 protease (>96% purity) and HIV protease substrate III (the undecapeptide H-His-Lys-Ala-Arg-Val-Leu-Nph-Glu-Ala-Nle-Ser-NH2,>97% purity) were purchased from Bachem Bioscience Inc. (King of Prussia, PA).
The methods employed follow the procedures of Tummino, et al. (Archives of Biochemistry and Biophysics 1995, 316, 523). […] (total volume, 100 μl). […] The final inhibitor concentrations used were 0 (0.1, 0.2, in some experiments), 0.5, 1, 2, 5, 10, 20, 50, and 100 μM. The solution was mixed, incubated for 5 minutes and the reaction quenched by addition of trifluoracetic acid, 2% final. The (leu-p-nitro-phe) bond of the substrate is cleaved by the enzyme and substrate and products separated by reverse-phase HPLC. Absorbance was measured at 220 nm, peak areas determined, and percentage conversion to product used to calculate percentage control (=[% conversion (+inhibitor)/% conversion (-inhibitor)]×100).

Data set [1] deals with HIV in lymphocyte derived CEM cells. In words: Cellular Infection Assay, antiviral efficacy in HIV infected CEM cells (XTT cytopathic procedure). The settings on record: Human immunodeficiency virus 1, CCRF-CEM, CEM cells; for EC95: protecting the cells 95% relative to untreated control; for EC50: reduces HIV cytopathic effects 50% relative to untreated control, read-out: Antiviral Efficacy EC50. The format is cell-based. As to the method:
as §1
(§2) Compounds were tested in lymphocyte derived CEM cells using the XTT cytopathic procedures and were performed at Southern Research Institute (Buckheit, et. al. Antiviral Res. 1993, 21, 247; see also Weislow, et al. J Nat. Cancer Inst., 1989, 81, 577). Compound concentrations were 0.32, 1, 3.2, 10, 32 and 100 uM. The EC50 represents the concentration of agent which reduces HIV cytopathic effects 50% relative to untreated control. EC95 represents the concentration of agent protecting the cells 95% relative to untreated control. Cellular toxicity of the agents are estimated from the TC50 which represents the concentration of the agent which inhibits 50% of the viability of uninfected cells.

A short description of data set [2]: Cellular toxicity in uninfected CEM cells (TC50). The format is cell-based. To be noted: human, inhibits 50% of the viability of uninfected cells. As to the method:
as §2

The mark [3] stands for this setting: 6.0 nM HIV-1 protease, 40 μM substrate III, 37° C., 5 minutes.

This note sets out measurements from patent publication US5834506A, “Dihydropyrones with improved antiviral activity” (Warner-Lambert Company, priority 1997, dated 1998).

The term IC50 denotes the point on the concentration scale where inhibition reaches its midpoint. By EC95 is commonly meant the concentration needed for an effect of 95%. One may read the EC50 as the concentration that produces a half-maximal response. In general, CC50 refers to the concentration at which the toxic effect on the cells reaches its halfway point.

Like-named read-outs stand apart in the source and are kept apart here. A value given as a limit tells only on which side of the number the result lay.

For the molecule `Cc1cc(SC2=C(O)CC(CCc3ccc(O)cc3)(C(C)C)OC2=O)c(C(C)(C)C)cc1NC(=O)c1ccccc1` (stereo not shown) [Example 58], at HIV-1 protease (setting [3]), the IC50 worked out at 21 nM. Further, in data set [1], the concentration for an effect of 95% (EC95) is 24000 nM and the EC50 amounted to 2800 nM. In data set [2], this molecule had a CC50 of 66000 nM.
In the same order, the values of `Cc1cc(SC2=C(O)CC(CCc3ccc4c(c3)OCO4)(C(C)C)OC2=O)c(C(C)(C)C)cc1CO` (stereo not shown) [Example 61] are 3.1 nM, 15000 nM, 1000 nM and 78000 nM.
In the same order, the values of `Cc1cc(SC2=C(O)CC(CCc3ccc(O)cc3)(C3CCCC3)OC2=O)c(C(C)(C)C)cc1CO` (stereo not shown) [Example 62] are 3.1 nM, 2500 nM, 600 nM and more than 100000 nM.
Take `Cc1cc(SC2=C(O)CC(CCc3ccc(O)cc3)(C(C)C)OC2=O)c(C(C)(C)C)cc1OS(=O)(=O)N1CCN(C)CC1` (stereo not shown) [Example 67]: on HIV-1 protease, the IC50 stood at 3.1 nM. In addition, in data set [1], the 95% effect level (EC95) was put at 2000 nM and the EC50 amounted to 500 nM. In data set [2], this molecule showed a CC50 of more than 100000 nM.
As for `Cc1cc(SC2=C(O)CC(C)(CCc3ccc(O)cc3)OC2=O)c(C(C)(C)C)cc1NC(=O)c1ccc(C#N)cc1` (stereo not shown) [Example 68], the IC50 on HIV-1 protease (setting [3]) is 56 nM. Further, in data set [1], the EC95 stood at 30000 nM and the EC50 turned out to be 16000 nM. The molecule further gave a CC50 in data set [2] of more than 100000 nM.
As for `Cc1cc(SC2=C(O)CC(C)(CCc3ccc(O)cc3)OC2=O)c(C(C)(C)C)cc1NS(=O)(=O)c1ccc(F)cc1` (stereo not shown) [Example 71], the IC50 at HIV-1 protease (setting [3]) came to 3.7 nM. For the same molecule, in data set [1], the EC95 is 8600 nM and the EC50 was determined as 2400 nM. In data set [2], the CC50 stood at 93000 nM.
For `Cc1cc(SC2=C(O)CC(CCc3ccc(N)cc3C)(C3CCCCC3)OC2=O)c(C(C)(C)C)cc1CO` (stereo not shown) [Example 72], in that order: 4.4 nM, 8500 nM, 500 nM and 66000 nM.
On to `Cc1cc(SC2=C(O)CC(CCc3ccc(O)cc3)(C(C)C)OC2=O)c(C(C)(C)C)cc1NS(=O)(=O)c1cccs1` (stereo not shown) [Example 77], for which the IC50 on HIV-1 protease (setting [3]) was determined as 8.7 nM. In data set [1], the EC95 came out at 5200 nM and the EC50 came to 1800 nM. This molecule also showed a CC50 in data set [2] of more than 100000 nM.
Consider `Cc1cc(SC2=C(O)CC(CCc3ccc(O)cc3)(C(C)C)OC2=O)c(C(C)(C)C)cc1NC(=S)N1CCNCC1` (stereo not shown) [Example 83], for which the IC50 on HIV-1 protease (setting [3]) was found to be 41 nM. In data set [1], it took 92000 nM to reach the 95% level (EC95) and the EC50 is 43000 nM. Further, the CC50 in data set [2] was more than 100000 nM.
For `Cc1cc(SC2=C(O)CC(CCc3ccc(N)cc3)(C(C)C)OC2=O)c(C(C)(C)C)cc1OS(=O)(=O)c1ccc(C#N)cc1` (stereo not shown) [Example 86], in that order: 1.3 nM, 3700 nM, 400 nM and 53000 nM.
For `CCNS(=O)(=O)Oc1cc(C(C)(C)C)c(SC2=C(O)CC(CCc3ccc(O)cc3)(C3CCN(C(C)=O)CC3)OC2=O)cc1C` (stereo not shown) [Example 89], in that order: 12 nM, 89000 nM, 32000 nM and more than 100000 nM.
For `Cc1cc(SC2=C(O)CC(CCc3ccc(O)cc3)(C(C)C)OC2=O)c(C(C)(C)C)cc1N(C)C` (stereo not shown) [Example 93], in that order: 11 nM, 10000 nM, 1900 nM and 68000 nM.
As to `Cc1cc(SC2=C(O)CC(CCc3ccc(O)cc3)(C3CCC3)OC2=O)c(C(C)(C)C)cc1CO` (stereo not shown) [Example 98], on HIV-1 protease (setting [3]), the IC50 was found to be 2.2 nM. In addition, in data set [1], the EC95 came to 1900 nM and the EC50 stood at 800 nM. The molecule further had a CC50 in data set [2] of more than 100000 nM.
Regarding `Cc1ccc(C(C)(C)C)c(SC2=C(O)CC(CCc3ccccc3)(CCc3ccccc3)OC2=O)c1` [Ref A, 3-(2-tert-Butyl-5-methyl-phenylsulfanyl)-4-hydroxy-6,6-diphenethyl-5,6-dihydro-pyran-2-one, reference compound], the IC50 on HIV-1 protease (setting [3]) is 150 nM. The EC50 in data set [1] is more than 23000 nM. The same molecule yielded a 50% cytotoxic concentration (CC50) in data set [2] of 23000 nM.
In the same order, the values of `Cc1ccc(C(C)(C)C)c(SC2=C(O)CC(CCc3ccccc3)(CCC(C)C)OC2=O)c1` (stereo not shown) [Ref C, 3-(2-tert-Butyl-5-methyl-phenylsulfanyl)-4-hydroxy-6-(3-methyl-butyl)-6-phenethyl-5,6-dihydro-pyran-2-one, reference compound] are 70 nM, more than 28000 nM and 28000 nM.
